Measurements as given in patent US7105229B2, “Coated particles, methods of making and using” (priority 1997, dated 2006).

Experiment: Solubilization of Paclitaxel in nanostructured phase interior
Format: physicochemical
Description: A nanostructured liquid phase containing the antineoplastic drug Paclitaxel was prepared by solubilizing 0.045 grams of Paclitaxel, 0.57 grams of eugenol, […] of soy lecithin (Epikuron 200), 0.33 grams of glycerol, and 0.06 grams of cupric nitrate with 0.61 grams of methanol, and then evaporating off the methanol in an evaporating dish, with stirring during evaporation. An glycerol-rich upper solution was prepared by dissolving 0.09 grams of potassium iodide, 0.05 grams of Pluronic F-68, 0.44 grams of water and 1.96 grams of glycerol. After overlaying the upper phase, the system was sonicated, resulting in the dispersing of Paclitaxel-containing, nanostructured liquid phase into microparticles coated with crystalline iodine. […] The loading of Paclitaxel in the particle interior was quite high, namely on the order of 3 wt %, which in this case was so high that precipitation of some of the Paclitaxel within the interior of each particle may occur since the solubilization of Paclitaxel in this cubic phase at this high loading was metastable. […]

For CC(=O)O[C@H]1C(=O)[C@@]2(C)[C@H]([C@H](OC(=O)c3ccccc3)[C@]3(O)C[C@H](OC(=O)[C@H](O)[C@@H](NC(=O)c4ccccc4)c4ccccc4)C(C)=C1C3(C)C)[C@]1(OC(C)=O)CO[C@@H]1C[C@@H]2O [Paclitaxel], the “concentration of Paclitaxel in the interior at which solubilization is truly stable (thermodynamic equilibrium)” value (eugenol/soy lecithin/glycerol nanostructured phase of Example 36) was no more than 0.7% and the “time taken for precipitation of Paclitaxel at metastable loading” value (loading on the order of 3 wt % of interior) was “hours or even days”.
